Experimental data reported in paper PMC10841833 (Cancer research, 2023).

Target: citron kinase (CIT/CRIK) (Homo sapiens, UniProt O14578)
Experiment: in vitro kinase assay
Format: biochemical

Chain of citron kinase (CIT/CRIK) (O14578 whole entry): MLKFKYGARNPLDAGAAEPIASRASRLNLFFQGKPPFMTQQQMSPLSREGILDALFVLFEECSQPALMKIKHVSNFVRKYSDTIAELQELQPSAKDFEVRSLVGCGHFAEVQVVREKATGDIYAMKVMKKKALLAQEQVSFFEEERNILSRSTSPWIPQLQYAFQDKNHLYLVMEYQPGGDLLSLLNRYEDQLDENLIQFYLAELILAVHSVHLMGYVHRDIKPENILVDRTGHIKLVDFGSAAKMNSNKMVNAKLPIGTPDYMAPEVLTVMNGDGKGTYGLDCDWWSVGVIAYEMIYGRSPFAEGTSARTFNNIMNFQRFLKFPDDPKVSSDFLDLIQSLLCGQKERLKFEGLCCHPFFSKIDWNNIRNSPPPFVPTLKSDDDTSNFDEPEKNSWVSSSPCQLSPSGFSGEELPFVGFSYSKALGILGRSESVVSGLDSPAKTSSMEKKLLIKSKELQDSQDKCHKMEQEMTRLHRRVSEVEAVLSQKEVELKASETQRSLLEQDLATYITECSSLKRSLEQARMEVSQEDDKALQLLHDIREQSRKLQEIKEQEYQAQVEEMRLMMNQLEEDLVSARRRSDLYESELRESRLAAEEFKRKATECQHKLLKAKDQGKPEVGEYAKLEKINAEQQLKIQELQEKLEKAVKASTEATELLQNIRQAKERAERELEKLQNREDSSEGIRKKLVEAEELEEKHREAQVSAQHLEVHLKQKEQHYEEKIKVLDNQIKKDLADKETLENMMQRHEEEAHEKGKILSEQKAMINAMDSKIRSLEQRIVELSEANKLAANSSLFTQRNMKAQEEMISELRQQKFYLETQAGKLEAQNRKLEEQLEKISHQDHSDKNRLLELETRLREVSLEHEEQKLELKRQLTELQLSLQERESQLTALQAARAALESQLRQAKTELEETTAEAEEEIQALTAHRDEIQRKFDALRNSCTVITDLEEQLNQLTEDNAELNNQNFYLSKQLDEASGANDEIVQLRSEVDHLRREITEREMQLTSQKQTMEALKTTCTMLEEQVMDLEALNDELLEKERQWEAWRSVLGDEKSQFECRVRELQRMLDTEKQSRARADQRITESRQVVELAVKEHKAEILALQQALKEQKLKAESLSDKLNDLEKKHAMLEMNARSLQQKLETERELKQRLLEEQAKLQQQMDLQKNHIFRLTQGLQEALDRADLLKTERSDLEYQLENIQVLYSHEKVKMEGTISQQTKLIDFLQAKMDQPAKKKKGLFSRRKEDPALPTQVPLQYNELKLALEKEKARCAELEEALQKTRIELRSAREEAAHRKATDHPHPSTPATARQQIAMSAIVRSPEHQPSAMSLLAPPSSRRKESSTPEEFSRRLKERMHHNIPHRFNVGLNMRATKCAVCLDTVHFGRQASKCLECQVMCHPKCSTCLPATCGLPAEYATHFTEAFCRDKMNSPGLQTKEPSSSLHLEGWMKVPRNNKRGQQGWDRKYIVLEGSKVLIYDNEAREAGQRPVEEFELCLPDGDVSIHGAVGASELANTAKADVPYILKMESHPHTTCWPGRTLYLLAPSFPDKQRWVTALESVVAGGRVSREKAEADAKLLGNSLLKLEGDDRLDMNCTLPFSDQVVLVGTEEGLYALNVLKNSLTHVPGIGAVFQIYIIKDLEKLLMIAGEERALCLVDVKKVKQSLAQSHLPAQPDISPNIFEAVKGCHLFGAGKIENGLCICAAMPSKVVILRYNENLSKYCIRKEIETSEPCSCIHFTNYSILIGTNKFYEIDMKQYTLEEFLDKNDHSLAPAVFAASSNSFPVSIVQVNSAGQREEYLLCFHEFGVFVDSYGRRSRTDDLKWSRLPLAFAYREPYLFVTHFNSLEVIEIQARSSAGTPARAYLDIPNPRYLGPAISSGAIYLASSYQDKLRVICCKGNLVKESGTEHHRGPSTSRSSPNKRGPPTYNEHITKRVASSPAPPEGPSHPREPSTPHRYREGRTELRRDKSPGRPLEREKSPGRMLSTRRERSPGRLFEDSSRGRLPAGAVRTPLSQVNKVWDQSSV

CC(=O)c1cnc2ccc(-c3cc(Cl)c(O)c(Cl)c3)nc2c1N[C@H]1CC[C@H](CN(C)C)CC1 [OTS-167]
IC50: ~10 nM
